Reference: patent publication US12202790B2, “Sulfonamide derivatives having selective Nox inhibiting activity” (GLUCOX BIOTECH AB, priority 2018, dated 2025)

Tests used:
hNox4 = hNox4 (Homo sapiens (Human), UniProt Q9NPH5); test: Amplex Red assay of intact Nox4 expressing HEK293 cells; assay type: cell-based; conditions: read-out: IC50 Nox4
Experimental: (§1) HEK293 overexpressing Nox4 (CJ Nox4) cells were purchased from Redoxis, Lund, Sweden. HEK 293 cells expressing Nox5, Nox3 (HEK TRex) and CHO cells expressing Nox1, were a kind gift from Vincent Jaque Center Medical Universitaire, Geneva, Switzerland. Nox2 expressed in isolated neutrophils were isolated from whole blood (human), as previously described (Anvari E, et al., Free Radic Res 2015; 49:1308-1318).
HEK293 cells (CJ Nox4) were cultured in RPMI 1640 with Glutamax supplemented with FBS (10%), penicillin (100 U/ml) and streptomycin […] at 37° C. in air with 5% CO2. Every third passage 200 µg/ml neomycin were supplied in growth medium as selective agent.
(§2) Reactive oxygen produced in whole cells or in membrane preparation of Nox1, Nox3, Nox4, Nox5 and xanthine oxidase and glucose oxidase were determined using Amplex Red as detection probe of formed H2O2. Amplex Red (10-acetyl-3,7-dihydroxyphenoxazine) in combination with HRP and co-factors reacts with H2O2 in a 1:1 stoichiometry to form a highly fluorescent resorufin excitated at 544 nm producing emission at 590 nm.
(§3) Adherent cells (CHO, HEK) were collected by trypsinization, centrifuged, washed with HBSS, counted, and resuspended in HBSS. Cells were seeded in 96-well black flat bottom plates at a density of 50,000-100,000 cells/well. All compounds were dissolved in DMSO and concentrations ranging from 0.003 to 200 μM were tested in Nox cellular assays with a final concentration of DMSO of 1%. Cells were incubated at 37° C. with the compounds for 30 minutes before measurement. Cells expressing Nox1 and Nox2 were activated with the PKC activator PMA (0.1 μM). Nox5 was activated with the Ca2+ ionophore ionomycin (1 μM) and further enforced with PMA. The CJ HEK 293 cells overexpressed Nox4 constitutively. In the HTS screen HEK 293 TRex was used and tetracycline ([…]) was added 18 h before measurement to induce Nox4 expression. Production of hydrogen peroxide by Nox in intact cells was measured using Amplex Red fluorescence as described by Jaquet V, et al., Br J Pharmacol 2011; 164:507-520. Assay reagents including HRP ([…]) and Amplex Red (50 μM) were added to initiate production of hydrogen peroxide. Fluorescence was read in a fluorescence plate reader at 37° C. every minute between 30-60 minutes.

Nox1 = Nox1 (Homo sapiens (Human), UniProt Q9Y5S8); test: Amplex Red assay of Nox1 expressing CHO cells; assay type: cell-based; set-up: key to IC50 Nox1: The sign “—” stands for “inactive”
Experimental: as §1
CHO cells expressing Nox1 were cultured in DMEM 12 medium (DMEM/F12) supplemented with FBS (10%), penicillin (100 U/ml) and streptomycin (100 μg/ml) at 37° C. in air with 5% CO2.
as §2, §3

Nox5 = Nox5 (Homo sapiens (Human), UniProt Q96PH1); test: Amplex Red assay of Nox5 expressing HEK cells; assay type: cell-based; set-up: key: The sign “—” stands for “inactive”
Source text: as §1
HEK293T cells expressing tetracycline-inducible human (Nox3 or Nox4) and HEK293 cells stably expressing human Nox5 were generated as described previously (Serrander et al., 2007a,b). HEK cells were cultured in Dulbecco's modified Eagle medium (DMEM) with 4.5 g/l glucose, supplemented with FBS (10%), penicillin (100 U/ml) and streptomycin […] at 37° C. in air with 5% CO2.
as §2, §3

xanthine oxidase = xanthine oxidase (Bos taurus (Bovine), UniProt P80457); test: Amplex Red xanthine oxidase (XO) assay; assay type: biochemical; set-up: key: The sign “—” stands for “inactive”
Experimental: as §2
The assay was designed for Amplex Red analysis of production of hydrogen peroxide. Test compounds were incubated with 5 mU/ml bovine derived xanthine oxidase for 15 min at room temperature followed by the addition of substrate and detection mix (final concentrations of 0.2 U/ml HRP, 5 μM hypoxanthine, and 50 μM Amplex Red). As described by Hirano K et al., Antioxid Redox Signal 2015 10; 23:358-374, production of hydrogen peroxide was followed by fluorescence detection during 30 min at 37° C. in a plate reader that use excitation at 544 nm producing emission at 590 nm.

DPPH redox assay = test: DPPH redox assay; set-up: key: The sign “—” stands for “inactive”; conditions: redox activity control
Experimental: DPPH, a well-known sensitive chemical of monitoring reactions involving radicals described by Xiong Q, et al., Biol Pharm Bull 1996; 19:1580-1585, was used as control to exclude any redox active compound. DPPH was incubated with decreasing concentrations (200-0.003 μM) of compounds of the invention or prior art compound GKT136901 (as a positive control). The plate was kept in the dark for 60 min, after which the absorbance of the solution was measured at 518 nm.

Nox2 = Nox2 (Homo sapiens (Human), UniProt P04839); test: Nox2 inhibition in human neutrophils, isoluminol-dependent chemiluminescence; assay type: cell-based; set-up: key to IC50 Nox2: The sign “—” stands for “inactive”; conditions: PMA stimulated human neutrophils
Experimental: as §1
Compounds of the invention were tested for selectivity against Nox2 in isolated neutrophils from whole blood (human), as previously described (Anvari E, et al., vide supra). Levels of ROS from PMA stimulated primary human neutrophils were measured using isoluminol-dependent chemiluminescence. […] The dye is excited by ROS and the light emitted when the excited molecules return to the ground state, relative to the amount of released ROS, is measured. This reaction is catalyzed and amplified by peroxidases. […] Compounds of the invention and GKT136901 were diluted at 4× working concentration and titrated from 100 μM to 0.006 μM in 1:4 steps as final concentrations. DPI was diluted in isoluminol buffer at 4× working concentration titrated from 10 μM to 0.0006 μM as final concentrations. PMA was diluted in isoluminol buffer at 4× working concentration for a final concentration of 30 ng/ml. […] Luminescence was detected using FluoStar Optima (BMG, Labtech). The isoluminol buffer was prepared immediately prior to addition to test plate. The buffer contained HRP fraction with or without PMA (30 ng/ml). Stock solutions at 6 μg/ml (PMA in HBSS), 3 μg/ml (PMA in DMSO) and 24 mM (DPI) were used and further diluted at the day of analysis to 4× working concentrations in HBSS with or without DMSO.

Human islet cells = test: Effects on human islet cell viability; assay type: cell-based; conditions: 48 h, inhibitor 2 μM; for human islet cell death with cytokines: IL-1β (20 ng/ml)+IFN-γ (20 ng/ml); for human islet cell death with high glucose+palmitate: palmitate (1.5 mM)+high glucose (20 mM)
Experimental: Human islet cells were incubated at control condition, with the cytokines IL-1β (20 ng/ml)+IFN-γ (20 ng/ml), or with palmitate (1.5 mM+2% BSA)+high glucose (20 mM) (PH) for 2 days with or without Nox1 inhibitor ML-171 (2 μM), Nox2 inhibitor Phos-I2 (2 μM) or Example 17 (1 μM). Islets were photographed in an inverted fluorescence microscope and the intensities of red (PI) and blue (Bisbenzimide) signals were quantified using Image J software. Results are indicated as mean±S.E.M for 7 human islet donors.

Sequence of Nox2 (P04839 2-570): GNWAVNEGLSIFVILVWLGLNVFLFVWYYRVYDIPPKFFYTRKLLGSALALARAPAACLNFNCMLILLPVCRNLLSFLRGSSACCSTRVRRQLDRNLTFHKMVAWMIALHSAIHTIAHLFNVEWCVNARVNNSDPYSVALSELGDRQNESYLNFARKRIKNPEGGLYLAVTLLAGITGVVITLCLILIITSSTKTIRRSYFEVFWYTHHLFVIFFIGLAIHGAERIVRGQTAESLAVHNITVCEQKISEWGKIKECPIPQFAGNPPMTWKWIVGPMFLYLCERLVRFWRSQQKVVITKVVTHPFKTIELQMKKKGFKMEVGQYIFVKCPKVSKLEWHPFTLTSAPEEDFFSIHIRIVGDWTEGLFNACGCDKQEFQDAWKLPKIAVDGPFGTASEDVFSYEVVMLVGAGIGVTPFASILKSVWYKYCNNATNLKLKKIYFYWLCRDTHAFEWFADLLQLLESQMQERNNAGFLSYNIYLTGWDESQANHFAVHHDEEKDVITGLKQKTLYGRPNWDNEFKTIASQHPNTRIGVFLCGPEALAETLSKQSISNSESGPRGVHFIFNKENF
Sequence of Nox2 (P13498 2-195 partner): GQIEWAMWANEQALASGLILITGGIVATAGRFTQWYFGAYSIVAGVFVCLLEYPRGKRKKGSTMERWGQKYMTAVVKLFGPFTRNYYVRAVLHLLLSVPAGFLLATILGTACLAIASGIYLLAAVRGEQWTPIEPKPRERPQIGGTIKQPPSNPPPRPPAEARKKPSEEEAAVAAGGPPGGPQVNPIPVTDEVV
Sequence of hNox4 (Q9NPH5 whole entry): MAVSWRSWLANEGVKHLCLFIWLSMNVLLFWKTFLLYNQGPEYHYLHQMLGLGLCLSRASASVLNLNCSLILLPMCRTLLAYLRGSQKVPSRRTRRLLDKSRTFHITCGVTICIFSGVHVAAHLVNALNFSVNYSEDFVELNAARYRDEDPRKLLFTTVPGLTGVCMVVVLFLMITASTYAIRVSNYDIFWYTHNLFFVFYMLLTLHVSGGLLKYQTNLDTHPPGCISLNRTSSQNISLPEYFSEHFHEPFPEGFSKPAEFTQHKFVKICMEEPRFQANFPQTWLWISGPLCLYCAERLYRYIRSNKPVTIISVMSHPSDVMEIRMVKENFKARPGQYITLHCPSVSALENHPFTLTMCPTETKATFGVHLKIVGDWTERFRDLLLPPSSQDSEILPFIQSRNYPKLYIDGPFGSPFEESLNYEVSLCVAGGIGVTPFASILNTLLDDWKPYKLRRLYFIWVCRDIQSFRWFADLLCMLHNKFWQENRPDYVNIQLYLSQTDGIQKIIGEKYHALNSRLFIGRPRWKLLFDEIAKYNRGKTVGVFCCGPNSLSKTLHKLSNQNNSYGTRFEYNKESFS
Sequence of hNox4 (P13498 2-195 partner): as the sequence (P13498 2-195 partner) above
Sequence of Nox5 (Q96PH1 whole entry): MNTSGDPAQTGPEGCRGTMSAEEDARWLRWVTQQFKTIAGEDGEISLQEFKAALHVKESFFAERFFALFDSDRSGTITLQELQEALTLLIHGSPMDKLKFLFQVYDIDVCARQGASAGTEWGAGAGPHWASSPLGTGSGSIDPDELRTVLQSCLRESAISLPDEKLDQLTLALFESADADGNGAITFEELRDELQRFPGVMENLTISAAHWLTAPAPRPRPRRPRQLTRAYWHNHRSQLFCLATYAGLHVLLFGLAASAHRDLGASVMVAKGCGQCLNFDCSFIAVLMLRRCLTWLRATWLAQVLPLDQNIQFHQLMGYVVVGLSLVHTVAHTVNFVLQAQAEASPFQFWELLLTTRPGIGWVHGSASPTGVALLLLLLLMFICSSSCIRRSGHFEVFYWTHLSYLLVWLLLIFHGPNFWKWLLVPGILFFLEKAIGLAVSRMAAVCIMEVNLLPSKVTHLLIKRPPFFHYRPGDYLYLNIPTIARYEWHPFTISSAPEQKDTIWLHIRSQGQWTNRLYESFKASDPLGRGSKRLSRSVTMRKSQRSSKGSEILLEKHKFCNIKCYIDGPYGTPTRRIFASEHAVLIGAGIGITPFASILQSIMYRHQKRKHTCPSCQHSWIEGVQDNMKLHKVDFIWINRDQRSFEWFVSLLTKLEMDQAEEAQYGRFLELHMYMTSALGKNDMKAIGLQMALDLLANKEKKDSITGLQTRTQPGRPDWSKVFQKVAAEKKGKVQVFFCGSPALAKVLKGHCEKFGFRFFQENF
Sequence of xanthine oxidase (P80457 whole entry): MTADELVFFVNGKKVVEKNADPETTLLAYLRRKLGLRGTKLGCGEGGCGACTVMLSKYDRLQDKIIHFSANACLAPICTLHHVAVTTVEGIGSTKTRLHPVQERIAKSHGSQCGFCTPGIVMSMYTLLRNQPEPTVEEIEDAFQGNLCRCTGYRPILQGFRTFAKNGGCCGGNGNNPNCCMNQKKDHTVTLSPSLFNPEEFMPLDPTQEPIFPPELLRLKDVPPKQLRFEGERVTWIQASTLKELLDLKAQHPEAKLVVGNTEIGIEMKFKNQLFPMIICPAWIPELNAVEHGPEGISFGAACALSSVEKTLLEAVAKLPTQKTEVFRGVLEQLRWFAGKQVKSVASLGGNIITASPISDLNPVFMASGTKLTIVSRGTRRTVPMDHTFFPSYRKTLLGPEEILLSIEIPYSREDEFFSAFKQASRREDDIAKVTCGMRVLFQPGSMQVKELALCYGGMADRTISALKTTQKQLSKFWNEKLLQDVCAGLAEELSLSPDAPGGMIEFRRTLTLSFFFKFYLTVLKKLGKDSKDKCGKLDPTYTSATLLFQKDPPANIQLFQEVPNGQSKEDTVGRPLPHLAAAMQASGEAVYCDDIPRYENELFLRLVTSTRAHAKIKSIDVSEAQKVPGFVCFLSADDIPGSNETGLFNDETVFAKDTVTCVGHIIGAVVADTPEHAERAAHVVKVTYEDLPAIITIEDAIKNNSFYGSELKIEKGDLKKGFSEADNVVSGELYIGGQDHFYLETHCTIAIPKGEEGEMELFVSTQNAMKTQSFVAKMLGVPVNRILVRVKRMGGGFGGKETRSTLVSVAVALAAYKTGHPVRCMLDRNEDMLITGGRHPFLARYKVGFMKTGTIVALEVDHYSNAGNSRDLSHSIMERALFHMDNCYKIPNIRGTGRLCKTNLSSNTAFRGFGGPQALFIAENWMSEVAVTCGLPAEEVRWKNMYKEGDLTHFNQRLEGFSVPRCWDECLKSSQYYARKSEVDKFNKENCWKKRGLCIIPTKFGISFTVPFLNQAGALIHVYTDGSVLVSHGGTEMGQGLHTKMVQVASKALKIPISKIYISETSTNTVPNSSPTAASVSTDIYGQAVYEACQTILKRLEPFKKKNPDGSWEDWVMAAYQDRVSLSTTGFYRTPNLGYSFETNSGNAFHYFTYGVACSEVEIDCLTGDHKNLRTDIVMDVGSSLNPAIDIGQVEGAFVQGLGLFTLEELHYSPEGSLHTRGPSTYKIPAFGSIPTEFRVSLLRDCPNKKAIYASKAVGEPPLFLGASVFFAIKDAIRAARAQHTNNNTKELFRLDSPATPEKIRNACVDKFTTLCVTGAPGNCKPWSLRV
Sequence of Nox1 (Q9Y5S8 whole entry): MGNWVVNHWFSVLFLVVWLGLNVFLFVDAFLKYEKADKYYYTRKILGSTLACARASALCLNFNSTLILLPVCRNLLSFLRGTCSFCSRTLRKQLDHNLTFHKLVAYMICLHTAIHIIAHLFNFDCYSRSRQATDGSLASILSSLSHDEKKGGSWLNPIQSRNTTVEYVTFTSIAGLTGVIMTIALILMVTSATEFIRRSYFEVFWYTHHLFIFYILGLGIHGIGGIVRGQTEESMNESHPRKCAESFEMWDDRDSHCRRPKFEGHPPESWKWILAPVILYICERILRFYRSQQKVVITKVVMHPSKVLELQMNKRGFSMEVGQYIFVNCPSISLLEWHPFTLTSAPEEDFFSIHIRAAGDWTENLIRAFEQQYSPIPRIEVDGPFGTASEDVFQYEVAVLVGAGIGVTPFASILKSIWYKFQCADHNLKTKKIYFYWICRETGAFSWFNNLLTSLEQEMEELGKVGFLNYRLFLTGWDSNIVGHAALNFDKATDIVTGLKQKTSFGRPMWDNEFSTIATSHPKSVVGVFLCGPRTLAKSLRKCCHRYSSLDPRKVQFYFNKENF
Sequence of Nox1 (P13498 2-195 partner): as the sequence (P13498 2-195 partner) above

Compound | IC50 (hNox4) | IC50 Nox1 (Nox1) | IC50 Nox5 (Nox5) | IC50 XO (xanthine oxidase) | IC50 DPPH (DPPH redox assay) | IC50 Nox2 (Nox2) | human islet cell death with cytokines (Human islet cells) | human islet cell death with high glucose+palmitate (Human islet cells) | IC50 (Nox1) | IC50 (Nox2)
O=S(=O)(NCCc1ccccc1F)c1c(Cl)cc(C2CC2)cc1Cl [Example 25, 2,6-dichloro-4-cyclopropyl-N-[2-(2-fluorophenyl)ethyl]benzene-1-sulfonamide] | 1100 nM | — | — | — | — |  |  |  |  | 
Cc1cc(C)c(S(=O)(=O)NCCc2ccccc2Br)c(C)c1 [Example 7, N-[2-(2-bromophenyl)ethyl]-2,4,6-trimethylbenzene-1-sulfonamide] | 270 nM | — | — | — |  | — |  |  |  | 
O=S(=O)(NCCc1ccccc1Cl)c1c(Cl)cc(C(F)(F)F)cc1Cl [Example 27, 2,6-dichloro-N-[2-(2-chlorophenyl)ethyl]-4-(trifluoromethyl)benzene-1-sulfonamide] | 1600 nM | — | — | — | — |  |  |  |  | 
O=[N+]([O-])c1cccc(C2Nc3ccc([N+](=O)[O-])cc3C3C=CCC32)c1 (stereo not shown) [Phox-I2] |  |  |  |  |  |  | failed to protect human islets against cytokines | partially protected against high glucose+palmitate |  | 
Cc1cc(C)c(S(=O)(=O)NCCc2ccccc2F)c(C)c1 [Example 2, N-[2-(2-fluorophenyl)ethyl]-2,4,6-trimethylbenzene-1-sulfonamide] | 2200 nM | — | — | — | — | — |  |  |  | 
Cc1cc(C)c(S(=O)(=O)NCCc2ccccc2C)c(C)c1 [Example 14, 2,4,6-trimethyl-N-[2-(2-methylphenyl)ethyl]benzene-1-sulfonamide] | 90 nM | — | — | — | — | — |  |  |  | 
Cc1ccccc1C(F)CNS(=O)(=O)c1c(Cl)cc(Br)cc1Cl (single isomer, unassigned) [Example 35 (isomer 2), 4-bromo-2,6-dichloro-N-[2-fluoro-2-(2-methylphenyl)ethyl]benzene-1-sulfonamide] | 4900 nM | — | — | — | — | — |  |  |  | 
CC(=O)c1ccc2c(c1)Nc1ccccc1S2 [ML171] |  |  |  |  |  |  | failed to reduce human islet cell death | failed to reduce human islet cell death |  | 
Cc1ccccc1C(F)CNS(=O)(=O)c1c(Cl)cc(Br)cc1Cl (single isomer, unassigned) [Example 35 (isomer 1), 4-bromo-2,6-dichloro-N-[2-fluoro-2-(2-methylphenyl)ethyl]benzene-1-sulfonamide] | 1700 nM | — | — | — | — | — |  |  |  | 
O=S(=O)(NCCc1ccccc1Cl)c1c(Cl)cc(Br)cc1Cl [Example 20, 4-bromo-2,6-dichloro-N-[2-(2-chlorophenyl)ethyl]benzene-1-sulfonamide] | 900 nM | — | — | — | — |  |  |  |  | 
Cc1c(C)c(S(=O)(=O)NCCc2ccccc2Cl)c(C)c2c1OC(C)(C)C2 [Example 9, N-[2-(2-chlorophenyl)ethyl]-2,2,4,6,7-pentamethyl-2,3-dihydro-1-benzofuran-5-sulfonamide] | 1600 nM | — | — | — | — | — |  |  |  | 
Cc1cc(C)c(S(=O)(=O)NCCc2ccccc2Cl)c(C)c1 [Example 6, N-[2-(2-chlorophenyl)ethyl]-2,4,6-trimethylbenzene-1-sulfonamide] | 270 nM | — | — | — | — | — |  |  |  | 
Cc1c2c(=O)n(-c3ccccc3Cl)[nH]c2cc(=O)n1Cc1ccccn1 [GKT136901, 2-(2-Chlorophenyl)-4-methyl-5-(pyridin-2-ylmethyl)-1H-pyrazolo[4,3-c]pyridine-3,6-dione, reference compound] | 1600 nM |  |  |  | active |  |  |  | 500 nM | 9000 nM
